# Data: patent publication US7947706B2, “Substituted pyrrolopyridines, compositions containing them, manufacturing process therefor and use thereof” (Sanofi-Aventis Deutschland GmbH, priority 2005, dated 2011)
row,melting point [°C],SMILES
1,252,"NC(=O)c1[nH]c2cnccc2c1-c1ccc(NC(=O)Nc2cccc(F)c2)cc1 [Example 48, 3-{4-[3-(3-Fluorophenyl)ureido]phenyl}-1H-pyrrolo[2,3-c]-pyridine-2-carboxamide]"
2,240,"NC(=O)c1[nH]c2cnccc2c1-c1ccc(NC(=O)Nc2cccc(C(F)(F)F)c2F)cc1 [Example 49, 3-{4-[3-(2-Fluoro-3-trifluoromethylphenyl)ureido]phenyl}-1H-pyrrolo[2,3-c]pyridine-2-carboxamide]"
3,261,"NC(=O)c1[nH]c2cnccc2c1-c1ccc(NC(=O)Nc2cc(F)cc(C(F)(F)F)c2)cc1 [Example 50, 3-{4-[3-(3-Fluoro-5-trifluoromethylphenyl)ureido]phenyl}-1H-pyrrolo[2,3-c]pyridine-2-carboxamide]"
4,201,"NC(=O)c1[nH]c2cnccc2c1-c1ccc(NC(=O)Nc2ccc(F)c(C(F)(F)F)c2)cc1 [Example 51, 3-{4-[3-(4-Fluoro-3-trifluoromethylphenyl)ureido]phenyl}-1H-pyrrolo[2,3-c]pyridine-2-carboxamide]"
5,199,"Cc1ccc(NC(=O)Nc2ccc(-c3c(C(N)=O)[nH]c4cnccc34)cc2)cc1C(F)(F)F [Example 52, 3-{4-[3-(4-Methyl-3-trifluoromethylphenyl)ureido]phenyl}-1H-pyrrolo[2,3-c]pyridine-2-carboxamide]"
6,270,"Cc1ccccc1NC(=O)Nc1ccc(-c2c(C(N)=O)[nH]c3cnccc23)cc1 [Example 56, 3-[4-(3-o-Tolylureido)phenyl]-1H-pyrrolo[2,3-c]pyridine-2-carboxamide]"
7,275,"COc1ccc(NC(=O)Nc2ccc(-c3c(C(N)=O)[nH]c4cnccc34)cc2)cc1 [Example 57, 3-{4-[3-(4-Methoxyphenyl)ureido]phenyl}-1H-pyrrolo[2,3-c]pyridine-2-carboxamide]"
8,267,"NC(=O)c1[nH]c2cnccc2c1-c1ccc(NC(=O)Nc2ccc(OC(F)F)c(Cl)c2)cc1 [Example 58, 3-{4-[3-(3-Chloro-4-difluoromethoxyphenyl)ureido]phenyl}-1H-pyrrolo[2,3-c]pyridine-2-carboxamide]"
9,188,"Cc1cc(C)cc(NC(=O)Nc2ccc(-c3c(C(N)=O)[nH]c4cnccc34)cc2)c1 [Example 59, 3-{4-[3-(3,5-Dimethylphenyl)ureido]phenyl}-1H-pyrrolo[2,3-c]pyridine-2-carboxamide]"
10,257,"CCc1cccc(NC(=O)Nc2ccc(-c3c(C(N)=O)[nH]c4cnccc34)cc2)c1 [Example 60, 3-{4-[3-(3-Ethylphenyl)ureido]phenyl}-1H-pyrrolo[2,3-c]-pyridine-2-carboxamide]"
11,254,"CCc1cccc(NC(=O)Nc2ccc(-c3c(C(N)=O)[nH]c4ncccc34)cc2)c1 [Example 61, 3-{4-[3-(3-Ethylphenyl)ureido]phenyl}-1H-pyrrolo[2,3-b]-pyridine-2-carboxamide]"
